According to PMC11742250, “Study on the absorption characteristics of euscaphic acid and tiliroside in fruits of Rosa laxa Retz” (PeerJ, 2025):

Columns and labels:
Assay type in all cases: in vitro ADME, human
in vitro = conditions: human
Protocol: (§1) A precise amount of FRLE reserve solution is diluted to concentrations of 50, 100, and 150 μg/mL, representing the low, medium, and high concentrations of FRLE. Additionally, solutions are prepared containing 0.100 μmoL/mL Verapamil (Ver), 0.099 μmoL/mL Cyclosporine A (CsA), and 0.025 μmoL/mL EGTA at low, medium, and high concentrations for bidirectional transport.
(§2) Caco-2 cells are seeded at a density of 2.5 × 10^5 cells/mL, with 0.5 mL inoculated into each well of a Transwell® 12-well plate. After continuous culturing for 18 days, the cell model is established. Bidirectional transport experiments include AP→BL ([…], absorption transport) and BL→AP ([…], secretion transport).
(§3) Taking absorption transport as an example: 0.5 mL of drug-containing Hank’s Balanced Salt Solution (HBSS) solution is added to the apical (AP) side (supply side), while 1.5 mL of blank solution is added to the basolateral (BL) side (receiving side). At time points 15, 30, 60, 90, 120, 150, and 180 min, 200 µL is drawn from the BL side and simultaneously supplemented with 200 µL of HBSS buffer. The samples are then evaporated in a water bath, re-dissolved in methanol, and centrifuged at 12,000 rpm for 10 min. The supernatant is taken and assayed under the conditions described in “Establishment of the determination method for euscaphic acid and tiliroside”. The effects of different times, concentrations, inhibitors, chelating agents, and pH values on the absorption characteristics of euscaphic acid and tiliroside in FRLE are investigated. The secretion transport procedure is identical to the absorption transport ([Artursson & Karlsson, 1991]).
(§4) The side with the added blank solution is considered the receiving side, and the amount of drug in the receiving side is regarded as its absorption amount (Qr). In the A→B transport test, the amount of drug absorbed by the B-side chamber at any time point is denoted as (QrBi). In the B→A transport test, the amount of drug absorbed by the A-side chamber at any time point is (QrAi). The specific calculations are provided in the following formulas:
(§5) A-B transport: QrBi = 0.2 × (Cr1 + Cr2 + Λ + Cr(i-1)) + 1.5 × Cri
(§6) B-A transport: Qrdi = 0.2 × (Cr1 + Cr2 + Λ + Cr(i-1)) + 0.5 × Cdi
(§7) In the formula, 1.5 represents the volume of the test solution added to the B-side chamber (mL), 0.5 represents the volume of the test solution added to the A-side chamber (mL), and 0.2 is the volume of each sample taken (mL). Cri is the actual concentration in the receiving chamber at the i-th time point (μg/mL). The apparent permeability coefficient Papp (cm/s) is calculated using the following formula ([Lu et al., 2020]):
(§8) Papp=dQ/dt×1/A×C0 dQ/dt represents the amount of drug transported per unit of time (μg/s); A is the surface area of the 12-well Transwell® membrane (1.12 cm^2), and C0 is the initial concentration of the drug in the donor side ([…]) ([Qu et al., 2021]).
(§9) Exhaust ratio (RB-A/A-B)) is calculated using the following formula: RB−A/A−B=Papp(B−A)/Papp(A−B)

Caco-2 cells = experiment: in vitro
Protocol: as §1, §2, §3, §4, §5, §6, §7, §8, §9

P-gp = experiment: in vitro; conditions: human, Caco-2, RB→A/A→B
Protocol: as §1, §2, §3, §4, §5, §6, §7, §8, §9

Papp at 180 min (in vitro; Caco-2): 0.754 to 26.9 ×10⁻⁶ cm/s
efflux ratio at 180 min, 50 μg/mL (in vitro; Caco-2, RB→A/A→B): 0.88 ± 0.01
efflux ratio at 180 min, 100 μg/mL (in vitro; Caco-2, RB→A/A→B): 0.86 ± 0.01
efflux ratio at 180 min, 150 μg/mL (in vitro; Caco-2, RB→A/A→B): 1.38 ± 0.21
efflux ratio at 180 min (in vitro; Caco-2, efflux ratio (RB→A/A→B)): < 1.5
efflux ratio at 180 min, 50 μg/mL (in vitro; Caco-2, pH 5, RB→A/A→B): 1.16 ± 0.08
efflux ratio at 180 min, 150 μg/mL (in vitro; Caco-2, pH 5, RB→A/A→B): 0.97 ± 0.06
efflux ratio at 180 min, 50 μg/mL (in vitro; Caco-2, pH 6, RB→A/A→B): 0.95 ± 0.05
efflux ratio at 180 min, 100 μg/mL (in vitro; Caco-2, pH 6, RB→A/A→B): 1.19 ± 0.02
efflux ratio at 180 min, 150 μg/mL (in vitro; Caco-2, pH 6, RB→A/A→B): 1.03 ± 0.09
efflux ratio at 180 min (in vitro; Caco-2, pH 6, RB→A/A→B value): ~1
efflux ratio at 180 min, 50 μg/mL (in vitro; Caco-2, pH 8, RB→A/A→B): 1.12 ± 0.03
efflux ratio at 180 min, 150 μg/mL (in vitro; Caco-2, pH 8, RB→A/A→B): 0.91 ± 0.05
efflux ratio at 180 min, 50 μg/mL (in vitro; Caco-2, pH 9, RB→A/A→B): 1.08 ± 0.03
P-gp substrate status (Caco-2 cells; Caco-2): substrates of P-gp
absorption category from Papp (Caco-2 cells; Caco-2): good absorption
transport mechanism (Caco-2 cells; Caco-2): passive diffusion
transport of euscaphic acid over time (Fig. 5M-O) (Caco-2 cells; human, Caco-2, 15 min, 50 μg/mL, pH 9): 0.08
absorption amount (Qr) (Caco-2 cells; human, Caco-2, 120 min, 50 μg/mL): 4.56
transport of euscaphic acid over time (Fig. 5M-O) (Caco-2 cells; human, Caco-2, 150 min, 50 µg/mL, pH 9): 0.45
Papp (Caco-2 cells; human, Caco-2, 180 min): greater than 10^−6
RB→A/A→B ratios, range over all conditions (Caco-2 cells; human, Caco-2, 180 min): 0.72-1.58
RB→A/A→B (Caco-2 cells; human, Caco-2, 180 min, 100 μg/mL, pH 5): 1.16 ± 0.03
RB→A/A→B (Caco-2 cells; human, Caco-2, 180 min, 100 μg/mL, pH 8): 0.95 ± 0.02
RB→A/A→B (Caco-2 cells; human, Caco-2, 180 min, 100 μg/mL, pH 9): 1.16 ± 0.04
RB→A/A→B (Caco-2 cells; human, Caco-2, 180 min, 150 μg/mL, pH 9): 1.14 ± 0.01
efflux ratio at 180 min, 50 μg/mL (P-gp): 0.72 ± 0.01
efflux ratio at 180 min, 100 μg/mL (P-gp): 0.78 ± 0.06
efflux ratio at 180 min, 150 μg/mL (P-gp): 1.58 ± 0.01
SMILES: C[C@@H]1CC[C@]2(C(=O)O)CC[C@]3(C)C(=CC[C@@H]4[C@@]5(C)C[C@@H](O)[C@@H](O)C(C)(C)[C@@H]5CC[C@]43C)[C@@H]2[C@]1(C)O [Euscaphic acid]
